The values below come from BindingDB's records for patent US20250270212 (Padarn Therapeutics, 2025).

A value given as a limit tells only on which side of the number the result lay.

In general, EC50 refers to the concentration that produces a half-maximal response. Low readings indicate greater potency, high ones weaker potency.

Chain of Wee1-like protein kinase (P30291 whole entry): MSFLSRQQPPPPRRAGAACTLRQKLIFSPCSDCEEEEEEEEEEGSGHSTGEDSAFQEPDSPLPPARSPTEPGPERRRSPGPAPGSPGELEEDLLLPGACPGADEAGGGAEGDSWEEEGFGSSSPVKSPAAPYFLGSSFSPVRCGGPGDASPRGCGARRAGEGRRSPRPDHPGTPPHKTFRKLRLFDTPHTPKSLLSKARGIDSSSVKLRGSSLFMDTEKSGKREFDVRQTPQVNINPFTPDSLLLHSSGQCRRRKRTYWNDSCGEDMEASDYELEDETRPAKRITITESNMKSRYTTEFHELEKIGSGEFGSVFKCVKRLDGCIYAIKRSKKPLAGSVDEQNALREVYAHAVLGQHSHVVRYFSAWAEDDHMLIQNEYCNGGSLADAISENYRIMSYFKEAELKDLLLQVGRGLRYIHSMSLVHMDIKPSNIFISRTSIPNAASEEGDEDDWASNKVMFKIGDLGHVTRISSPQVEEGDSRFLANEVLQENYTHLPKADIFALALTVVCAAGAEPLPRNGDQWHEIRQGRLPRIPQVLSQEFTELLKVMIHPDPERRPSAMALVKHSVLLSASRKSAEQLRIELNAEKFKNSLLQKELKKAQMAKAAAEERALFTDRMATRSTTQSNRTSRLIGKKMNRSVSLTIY

The assay has as its target Wee1-like protein kinase (Homo sapiens, UniProt P30291). Kind of assay: Wee1 Enzymatic Activity Inhibition Assay. How it is done: The enzymatic assay used to determine activity was a Luminescence assay using a Microplate Reader (BMG, ClarioStar Plus). The enzymatic reaction was carried out in assay buffer (40 mM TRIS-HCl pH 7.4-7.6, 20 mM MgCl2, 0.05 mM DTT, 0.1 mg/ml BSA, 5 mM MnCl2). The compounds were dispensed on a 384 well Diamond Well Plate (Axigen, Cat #P-384-120SQ-C-S) using the Biomek FX liquid handling system at 100× solutions of compounds in DMSO. 2×Wee1-PolyE4Y1 mix (final concentration 0.85 ng/μl of Wee1 and 0.2 μg/μl of PolyE4Y1) was prepared in 1× Assay buffer and 5.5 μl of mixture per well was added into 384w white Reaction plate with NBS (Corning, Cat #4513). 5.5 μl of PolyE4Y1 substrate w/o Wee1 in 1× buffer was used for negative control. Plates were centrifuged for 1 min at 100 g. Next step the Compounds were added to Reaction plate using Biomek station via following steps: 1 μl of 100× compounds (in DMSO) were mixed thoroughly with 49 μl of 2×10 μM ATP in Assay Buffer, then 5.5 μl of this mixture was added to Reaction plate with 5.5 μl of Wee1-PolyE4Y1 mix. Plates were centrifuged for 1 min at 100 g and incubated for 1 h at room temperature. Next 3 μL of ADP-Glo reagent (Promega, ADP-Glo™ Kinase Assay, Cat #V9102) per well was added. Plates were incubated for 30 minutes at room temperature. Then 6 μL of Kinase detection reagent (Promega, ADP-Glo™ Kinase Assay, Cat #V9102) per well was added and the Luminescence was measured using Microplate Reader.
Turning to `C=CCn1c(=O)c2cnc(N3CCN(C(=O)c4cc(Cc5n[nH]c(=O)c6ccccc56)ccc4F)CC3)nc2n1-c1cccc(C(C)(C)O)n1` [US20250270212, Compound 2], the EC50 was more than 1000 nM.
With `C=CCn1c(=O)c2cnc(Nc3ccc(N4CCN(Cc5ccc(-c6[nH]c7cc(F)cc8c7c6CCNC8=O)cc5)CC4)cc3)nc2n1-c1ccccn1` [US20250270212, Compound 39] the figure was less than 10 nM; with `C=CCn1c(=O)c2cnc(NC3CCN(C(=O)c4cc(Cc5n[nH]c(=O)c6ccccc56)ccc4F)CC3)nc2n1-c1cccc(C(C)(C)O)n1` [US20250270212, Compound 4], more than 1000 nM.
As for `Cn1c2nc(Nc3ccc(N4CCN(C(=O)c5cc(Cc6n[nH]c(=O)c7ccccc67)ccc5F)CC4)cc3)ncc2c(=O)n1-c1ccccn1` [US20250270212, Compound 12], the EC50 was more than 1000 nM.
`Cn1c(=O)c2cnc(Nc3ccc(N4CCCC(c5nc6cccc(C(N)=O)c6[nH]5)C4)cc3)nc2n1-c1ccccn1` (stereo unspecified) [US20250270212, Compound 96] had an EC50 of less than 10 nM.
For the molecule `Cn1c(=O)c2cnc(Nc3ccc(N4CCN(C(=O)c5cc(Cc6n[nH]c(=O)c7ccccc67)ccc5F)CC4)cc3)nc2n1-c1cccc(C(C)(C)O)n1` [US20250270212, Compound 7], the EC50 is less than 10 nM.
With `C=CCn1c(=O)c2cnc(NCCNC(=O)c3cc(Cc4n[nH]c(=O)c5ccccc45)ccc3F)nc2n1-c1cccc(C(C)(C)O)n1` [US20250270212, Compound 6] the figure was more than 1000 nM; with `C=CCn1c(=O)c2cnc(Nc3ccc(N4CCN(C(=O)c5cc(Cc6n[nH]c(=O)c7ccccc67)ccc5F)CC4)cc3)nc2n1-c1cccc(C(C)(C)O)c1` [US20250270212, Compound 1], less than 10 nM.
The same measure for `C=CCn1c(=O)c2cnc(NC3CCN(Cc4ccc(-c5[nH]c6cc(F)cc7c6c5CCNC7=O)cc4)CC3)nc2n1-c1cccc(C(C)(C)O)n1` [US20250270212, Compound 47]: more than 1000 nM.
With `C=CCn1c(=O)c2cnc(Nc3ccc(N4CCN(Cc5cc(Cn6c(=O)[nH]c(=O)c7c(F)cccc76)ccc5F)CC4)cc3)nc2n1-c1cccc(C(C)(C)O)n1` [US20250270212, Compound 34] the figure was less than 10 nM; with `Cn1c2nc(Nc3ccc(N4CCC(c5nc6cccc(C(N)=O)c6[nH]5)CC4)cc3)ncc2c(=O)n1-c1ccccn1` [US20250270212, Compound 91], more than 1000 nM; with `Cn1c(=O)c2cnc(N3CCN(C(=O)c4cc(Cc5n[nH]c(=O)c6ccccc56)ccc4F)CC3)nc2n1-c1ccccn1` [US20250270212, Compound 5], more than 1000 nM.
Take `Cn1c(=O)c2cnc(Nc3ccc(N4CCN(Cc5cc(Cc6n[nH]c(=O)c7ccccc67)ccc5F)CC4)cc3)nc2n1-c1cccc(C(C)(C)O)n1` [US20250270212, Compound 8]: the EC50 was less than 10 nM.
With `Cn1c2nc(Nc3ccc(N4CCN(C(=O)c5cc(Cn6c(=O)[nH]c(=O)c7c(F)cccc76)ccc5F)CC4)cc3)ncc2c(=O)n1-c1ccccn1` [US20250270212, Compound 17] the figure was more than 1000 nM; with `C=CCn1c(=O)c2cnc(Nc3ccc(N4CCN(C(=O)c5cc(Cn6c(=O)[nH]c(=O)c7c(F)cccc76)ccc5F)CC4)cc3)nc2n1-c1cccc(C(C)(C)O)n1` [US20250270212, Compound 16], less than 10 nM.
The same measure for `C=CCn1c(=O)c2cnc(Nc3ccc(N4CCN(C(=O)c5cc(Cn6c(=O)[nH]c(=O)c7c(F)cccc76)ccc5F)CC4)cc3)nc2n1-c1ccccn1` [US20250270212, Compound 28]: less than 10 nM.
